molecular target: T1, human PTH1 receptor (Homo sapiens, UniProt Q03431); experiment: In vitro cAMP signal activity in HKRK-B7 cells (LLC-PK1 cells overexpressing the human PTH1 receptor); assay type: cell-based; details: HKRK-B7 cells; compound at 1×10^−3 M; cAMP produced as percentage of that produced by hPTH(1-34) at 100 nM
T1 sequence (Q03431 27-593): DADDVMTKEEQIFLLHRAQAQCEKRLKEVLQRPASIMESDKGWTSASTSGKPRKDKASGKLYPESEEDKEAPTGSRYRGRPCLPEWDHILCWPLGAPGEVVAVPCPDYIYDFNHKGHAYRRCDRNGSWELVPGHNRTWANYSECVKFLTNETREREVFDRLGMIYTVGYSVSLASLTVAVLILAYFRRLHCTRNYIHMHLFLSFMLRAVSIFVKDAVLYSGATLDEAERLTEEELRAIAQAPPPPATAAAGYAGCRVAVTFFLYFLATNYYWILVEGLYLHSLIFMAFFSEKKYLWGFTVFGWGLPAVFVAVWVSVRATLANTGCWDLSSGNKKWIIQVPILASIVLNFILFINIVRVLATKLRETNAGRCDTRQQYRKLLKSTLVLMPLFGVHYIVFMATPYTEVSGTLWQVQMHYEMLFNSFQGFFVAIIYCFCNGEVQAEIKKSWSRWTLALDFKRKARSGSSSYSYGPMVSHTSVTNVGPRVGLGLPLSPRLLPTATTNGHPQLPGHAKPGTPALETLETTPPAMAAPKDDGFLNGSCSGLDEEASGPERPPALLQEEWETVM

| cAMP production activity (%) | SMILES |
| --- | --- |
| 73% | CCCCC1CCC(C2=NC3(CCN(S(=O)(=O)/C=C/c4c(C)cc(C(=O)N5CCC(OCCO)CC5)cc4C)CC3)C(=O)N2)CC1 (stereo not drawn) [Compound 1008, 2-(4-Butyl-cyclohexyl)-8-((E)-2-{4-[4-(2-hydroxy-ethoxy)-piperidine-1-carbonyl]-2,6-dimethyl-phenyl}-ethenesulfonyl)-1,3,8-triaza-spiro[4.5]dec-1-en-4-one] |
| 71% | Cc1cc(N2C(=O)CNC2=O)ccc1CCS(=O)(=O)N1CCC2(CC1)N=C(C1CCC(CCCC(F)(F)F)CC1)NC2=O (stereo not drawn) [Compound 944, 3-[3-methyl-4-(2-{4-oxo-2-[4-(4,4,4-trifluoro-butyl)-cyclohexyl]-1,3,8-triaza-spiro[4.5]dec-1-ene-8-sulfonyl}-ethyl)-phenyl]-imidazolidine-2,4-dione] |
| 74% | CCC1CCC(C2=NC3(CCN(S(=O)(=O)CCc4ccc(C(=O)N5CCN(CCF)CC5)cc4C)CC3)C(=O)N2)CC1 (stereo not drawn) [Compound 975, 2-(4-Ethyl-cyclohexyl)-8-(2-{4-[4-(2-fluoro-ethyl)-piperazine-1-carbonyl]-2-methyl-phenyl}-ethanesulfonyl)-1,3,8-triaza-spiro[4.5]dec-1-en-4-one] |
| 124% | Cc1cc(N(C)C(N)=O)cc(C)c1/C=C/[S@TB3](=O)(=O)N1CCC2(CC1)N=C(CCCC/C=C/c1ccccc1)NC2=O [Compound 1120, 1-(3,5-dimethyl-4-{(E)-2-[4-oxo-2-((E)-6-phenyl-hex-5-enyl)-1,3,8-triaza-spiro[4.5]dec-1-ene-8-sulfonyl]-vinyl}-phenyl)-1-methyl-urea] |
| 72% | Cc1cc(C(=O)N2CCC(O)(CF)CC2)cc(C)c1/C=C/S(=O)(=O)N1CCC2(CC1)N=C(c1ccc(OCCCC(F)(F)C(F)(F)F)c(C(F)(F)F)c1)NC2=O [Compound 1252, 8-{(E)-2-[4-(4-fluoromethyl-4-hydroxy-piperidine-1-carbonyl)-2,6-dimethyl-phenyl]-ethenesulfonyl}-2-[4-(4,4,5,5,5-pentafluoro-pentyloxy)-3-trifluoromethyl-phenyl]-1,3,8-triaza-spiro[4.5]dec-1-en-4-one] |
| 51% | Cc1cc(CNC(=O)OC(C)(C)C)ccc1CCS(=O)(=O)N1CCC2(CC1)N=C(C1CCC(CCC(F)(F)F)CC1)NC2=O (stereo not drawn) [Compound 928, [3-Methyl-4-(2-{4-oxo-2-[4-(3,3,3-trifluoro-propyl)-cyclohexyl]-1,3,8-triaza-spiro[4.5]dec-1-ene-8-sulfonyl}-ethyl)-benzyl]-carbamic acid tert-butyl ester] |
| 56% | O=C1NC(C2CCCCC2)=NC12CCN(S(=O)(=O)CCc1cc3cc[nH]c3cc1C(F)(F)F)CC2 [Compound 836, 2-cyclohexyl-8-[2-(6-trifluoromethyl-1H-indol-5-yl)-ethanesulfonyl]-1,3,8-triaza-spiro[4.5]dec-1-en-4-one] |
| 69% | CNc1cc(C)c(/C=C/S(=O)(=O)N2CCC3(CC2)N=C(CCCCCCCC(F)(F)C(F)(F)F)NC3=O)c(C)c1 [Compound 691, 8-[(E)-2-(2,6-Dimethyl-4-methylamino-phenyl)-ethenesulfonyl]-2-(8,8,9,9,9-pentafluoro-nonyl)-1,3,8-triaza-spiro[4.5]dec-1-en-4-one] |
| 91% | CCCC=C1CCC(C2=NC3(CCN(S(=O)(=O)CCc4ccc(NC(C)=O)cc4C)CC3)C(=O)N2)CC1 (stereo not drawn) [Compound 1079, N-(4-{2-[2-(4-Butylidene-cyclohexyl)-4-oxo-1,3,8-triaza-spiro[4.5]dec-1-ene-8-sulfonyl]-ethyl}-3-methyl-phenyl)-acetamide] |
| 108% | Cc1cc(C(=O)N2CCC(C)(O)CC2)cc(C)c1/C=C/S(=O)(=O)N1CCC2(CC1)N=C(c1cccc(S(F)(F)(F)(F)F)c1)NC2=O [Compound 1190, 8-{(E)-2-[4-(4-hydroxy-4-methyl-piperidine-1-carbonyl)-2,6-dimethyl-phenyl]-ethenesulfonyl}-2-(3-pentafluorosulfanyl-phenyl)-1,3,8-triaza-spiro[4.5]dec-1-en-4-one] |
| 85% | CCCCC1CCC(C2=NC3(CCN(S(=O)(=O)CCc4ccc(C(=O)N(C)C)cc4C)CC3)C(=O)N2)CC1 (stereo not drawn) [Compound 894, 4-{2-[2-(4-butyl-cyclohexyl)-4-oxo-1,3,8-triaza-spiro[4.5]dec-1-ene-8-sulfonyl]-ethyl}-3,N,N-trimethyl-benzamide] |
| 55% | CN1CCCc2c(CCS(=O)(=O)N3CCC4(CC3)N=C(C3CCCCC3)NC4=O)cccc21 [Compound 747, 2-cyclohexyl-8-[2-(1-methyl-1,2,3,4-tetrahydro-quinolin-5-yl)-ethanesulfonyl]-1,3,8-triaza-spiro[4.5]dec-1-en-4-one] |
| 118% | CCCc1cc2ccc(C3=NC4(CCN(S(=O)(=O)CCc5c(C)cc(N(C)C(N)=O)cc5C)CC4)C(=O)N3)cc2o1 [Compound 1355, 1-(3,5-dimethyl-4-{2-[4-oxo-2-(2-propyl-benzofuran-6-yl)-1,3,8-triaza-spiro[4.5]dec-1-ene-8-sulfonyl]-ethyl}-phenyl)-1-methyl-urea] |
| 109% | Cc1cc(C(=O)N2CCCO2)cc(C)c1CCS(=O)(=O)N1CCC2(CC1)N=C(C1CCC(C)CC1)NC2=O (stereo not drawn) [Compound 1182, 8-{2-[4-(isoxazolidine-2-carbonyl)-2,6-dimethyl-phenyl]-ethanesulfonyl}-2-(4-methyl-cyclohexyl)-1,3,8-triaza-spiro[4.5]dec-1-en-4-one] |

Further lines, the molecule ahead of its results:

| SMILES | cAMP production activity (%) |
| --- | --- |
| COc1cccc(/C=C/S(=O)(=O)N2CCC3(CC2)N=C(C2CCCCC2)NC3=O)c1 [Compound 180, 2-cyclohexyl-8-[(E)-2-(3-methoxy-phenyl)-ethenesulfonyl]-1,3,8-triaza-spiro[4.5]dec-1-en-4-one] | 60% |
| CC(=O)NNC(=O)c1cc(C)c(/C=C/S(=O)(=O)N2CCC3(CC2)N=C(C2CCC(CCC(F)(F)F)CC2)NC3=O)c(C)c1 (stereo not drawn) [Compound 552, 3,5-dimethyl-4-((E)-2-{4-oxo-2-[4-(3,3,3-trifluoro-propyl)-cyclohexyl]-1,3,8-triaza-spiro[4.5]dec-1-ene-8-sulfonyl}-vinyl)-benzoic acid N′-acetyl-hydrazide] | 64% |
| O=C1NC(C2CCCCC2)=NC12CCN(S(=O)(=O)c1csc3ccccc13)CC2 [Compound 53, 8-(benzo[b]thiophene-3-sulfonyl)-2-cyclohexyl-1,3,8-triaza-spiro[4.5]dec-1-en-4-one] | 33% |
| Cc1c(/C=C/S(=O)(=O)N2CCC3(CC2)N=C(c2cccc(OC(F)(F)F)c2)NC3=O)cccc1OCCO [Compound 256, 8-{(E)-2-[3-(2-Hydroxy-ethoxy)-2-methyl-phenyl]-ethenesulfonyl}-2-(3-trifluoromethoxy-phenyl)-1,3,8-triaza-spiro[4.5]dec-1-en-4-one] | 67% |
| CC(=O)Nc1cccc(C)c1CCS(=O)(=O)N1CCC2(CC1)N=C(C1CCCCC1)NC2=O [Compound 276, N-{2-[2-(2-cyclohexyl-4-oxo-1,3,8-triaza-spiro[4.5]dec-1-ene-8-sulfonyl)-ethyl]-3-methyl-phenyl}-acetamide] | 63% |
| O=C(Nc1ccncc1)c1cccc(CCS(=O)(=O)N2CCC3(CC2)N=C(C2CCCCC2)NC3=O)c1 [Compound 422, 3-[2-(2-cyclohexyl-4-oxo-1,3,8-triaza-spiro[4.5]dec-1-ene-8-sulfonyl)-ethyl]-N-pyridin-4-yl-benzamide] | 14% |
| CCCCCCCCCC1=NC2(CCN(S(=O)(=O)/C=C/c3c(C)cc(N4C(=O)CNC4=O)cc3C)CC2)C(=O)N1 [Compound 539, 3-{3,5-dimethyl-4-[(E)-2-(2-nonyl-4-oxo-1,3,8-triaza-spiro[4.5]dec-1-ene-8-sulfonyl)-vinyl]-phenyl}-imidazolidine-2,4-dione] | 80% |
| Cc1cc(NC[C@H](O)CO)ccc1CCS(=O)(=O)N1CCC2(CC1)N=C(C1CCCCC1)NC2=O [Compound 321, 2-Cyclohexyl-8-{2-[4-((S)-2,3-dihydroxy-propylamino)-2-methyl-phenyl]-ethanesulfonyl}-1,3,8-triaza-spiro[4.5]dec-1-en-4-one] | 55% |
| CC1(C)OC[C@H](Cn2ccc3c(/C=C/S(=O)(=O)N4CCC5(CC4)N=C(C4CCC(C(F)(F)F)CC4)NC5=O)cccc32)O1 (stereo partly drawn) [Compound 245, 8-{(E)-2-[1-((S)-2,2-dimethyl-[1,3]dioxolan-4-ylmethyl)-1H-indol-4-yl]-ethenesulfonyl}-2-(4-trifluoromethyl-cyclohexyl)-1,3,8-triaza-spiro[4.5]dec-1-en-4-one] | 34% |
| Cc1cc(C(=O)N2CCN(CCN3CCOCC3)CC2)ccc1CCS(=O)(=O)N1CCC2(CC1)N=C(c1cccc(C(F)(F)F)c1)NC2=O [Compound 363, 8-(2-{2-methyl-4-[4-(2-morpholin-4-yl-ethyl)-piperazine-1-carbonyl]-phenyl}-ethanesulfonyl)-2-(3-trifluoromethyl-phenyl)-1,3,8-triaza-spiro[4.5]dec-1-en-4-one] | 67% |

Source: US9169254B2, “Spiroimidazolone derivative” (Chugai Seiyaku Kabushiki Kaisha, priority 2009, dated 2015)
